One test has as its target T1, PhTET3 (Pyrococcus horikoshii, UniProt O59485).
T1 construct: His tag (inferred: purified as the recognizers, on Ni-NTA); made in house; host or cells: E. coli BL21(DE3)
T1 sequence (O59485 1-354): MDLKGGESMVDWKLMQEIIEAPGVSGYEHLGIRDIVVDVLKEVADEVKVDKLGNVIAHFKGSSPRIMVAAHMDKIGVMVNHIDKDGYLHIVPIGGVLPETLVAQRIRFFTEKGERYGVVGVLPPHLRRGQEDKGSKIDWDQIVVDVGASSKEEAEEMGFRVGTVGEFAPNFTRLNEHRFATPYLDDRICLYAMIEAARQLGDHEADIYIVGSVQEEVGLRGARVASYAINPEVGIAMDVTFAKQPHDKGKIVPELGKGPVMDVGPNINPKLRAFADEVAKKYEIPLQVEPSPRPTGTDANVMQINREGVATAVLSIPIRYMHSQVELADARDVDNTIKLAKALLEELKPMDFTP
In words: Aminopeptidase cleavage during dynamic sequencing with PhTET3. It counts as biochemical, P. horikoshii. An excerpt: The collected traces consisted of regions of distinct pulsing, which were referred to as recognition segments (RSs), separated by regions lacking recognition pulsing (non-recognition segments, NRSs). Analysis software was developed to automatically identify pulsing regions and transition points within traces (Methods). Traces began with recognition of phenylalanine with a median PD of 2.36 s (FIG. 2D), in agreement with the PD observed for FAA in recognition-only assays. This pattern terminated after aminopeptidase addition (on average 11 min after addition), and was followed by the ordered appearance of two RSs with median PDs of 0.25 s and 0.49 s (FIG. 2D), corresponding to the short and medium PDs obtained in YAA and WAA recognition-only assays.
(§1) A second chip check was then performed. […] Data was recorded for 15 min.

Another test deals with PS610. In words: Dynamic single-molecule sequencing, recognition by PS610. It is filed as binding, A. tumefaciens.
Test [1] deals with PS961. In words: NAA recognition-only single-molecule assay on chip with PS961. It counts as binding, Planctomycetes. To be noted: 250 nM PS961.
Text: To expand the set of recognizable NAAs, N-end rule pathway proteins were investigated as a source of additional recognizers. In a comprehensive screen of diverse ClpS family proteins, a group of ClpS proteins from the bacterial phylum Planctomycetes with native binding to N-terminal leucine, isoleucine, and valine was discovered. […] The median PD of binding to peptides with N-terminal LAA, IAA, and VAA was 1.21, 0.28, and 0.21 s, respectively, in agreement with bulk characterization (FIG. 7C).
as §1
The resulting regions are called recognition segments (RSs).

In test [2] the test system is PS961. In words: Dynamic single-molecule sequencing, recognition by PS961. It counts as binding, Planctomycetes.
In the next test the test system is PS1223. In words: Dynamic single-molecule sequencing, recognition by PS1223. It is filed as binding. The note with it: recognizer PS1223, recognition of the N-terminal amino acid. As for the experimental part: Sequencing reactions using the recognizers PS610 (FYW), PS1220 (R), and PS1223 (LIV) were performed separately for the QP706 and QP1073 peptide fragments. Each recognizer was labeled with a unique dye and/or unique number of dyes. A scatter plot of bin ratio v. pulse duration is shown for the QP706 peptide fragment in FIG. 18A and for the QP1073 peptide fragment in FIG. 18B. In the plot of FIG. 18A, three clusters corresponding to FLE, LEQ, and RFL segments are visible. […] In the plot of FIG. 18B, two clusters corresponding to FLE and LEQ segments are visible, but there is no cluster corresponding to RFL.
In this example, sequencing reactions were conducted for 4 pairs of unmodified and citrullinated peptides: QP1028 & QP1029, QP1030 & QP1031, QP1032 & QP1033, and QP707 & QP789. […] For the QP1028 & QP1029 and QP1030 & QP1031 pairs, sequencing reactions were conducted using the PS610 (FYW) recognizer. For the QP1032 & QP1033 and QP707 & QP789 pairs, sequencing reactions were conducted using the PS1223 (LIV) recognizer.

The next test deals with T2, PS621 (Kluyveromyces lactis, UniProt O60014, E174T/N105S/N176F/R116K/S153T/V146T).
T2 construct: PS621; […]
In words: Dynamic single-molecule sequencing, recognition by PS621. It is filed as binding. The note with it: citrulline at position 2.

Square brackets hold non-standard residues; d marks the D form. Ends that are not written are not given here. Cit = NC(=O)NCCC[C@H](N)C(=O)O

Chain of PS961 (as listed by the source): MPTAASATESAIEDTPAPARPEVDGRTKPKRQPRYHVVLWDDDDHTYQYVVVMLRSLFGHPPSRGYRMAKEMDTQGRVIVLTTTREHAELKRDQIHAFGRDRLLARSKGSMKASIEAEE
Chain of PS1223 (as listed by the source): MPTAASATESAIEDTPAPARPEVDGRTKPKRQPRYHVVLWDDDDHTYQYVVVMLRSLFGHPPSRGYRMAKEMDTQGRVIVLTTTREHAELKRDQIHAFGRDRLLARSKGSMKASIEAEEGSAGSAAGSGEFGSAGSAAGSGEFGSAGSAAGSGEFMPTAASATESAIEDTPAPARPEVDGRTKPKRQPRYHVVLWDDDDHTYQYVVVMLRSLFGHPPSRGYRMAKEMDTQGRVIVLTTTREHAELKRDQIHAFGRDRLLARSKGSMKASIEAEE
T2 sequence (O60014 other isoform, or with tags, fused parts or gaps N105S/R116K/V146T/S153T/E174T/N176F): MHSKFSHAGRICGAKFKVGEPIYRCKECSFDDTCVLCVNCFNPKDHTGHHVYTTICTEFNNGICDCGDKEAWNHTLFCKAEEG

Regarding FAAWAAYAA [FAAWAAYAAAADDD], in the test with PhTET3, the “Termination of phenylalanine recognition pattern after aminopeptidase addition (average)” value worked out at 11 min. Further, the “Median PD, recognition of phenylalanine (first RS)” value in the test on PS610 (PS610, PhTET3 added after 15 minutes) came out at 2.36 s. Besides, in the test with PS610 (PS610 with PhTET3), the “Median PD, first RS appearing after phenylalanine” value was determined as 0.25 s and the “Median PD, second RS appearing after phenylalanine” value came out at 0.49 s.
In the case of “IAA: peptide with N-terminal IAA; in b185 the N-terminal IAA state of LAQFASIAAYASDDD (not fully specified (C-terminus); also: C-terminal azidolysine conjugated to DNA-streptavidin linker)”, the “Median PD of binding” value with PS961 [1] amounted to 0.28 s. Also, the “Median PD” value in the test with PS961 [2] (peptide LAQFASIAAYASDDD, PS610 and PS961, PhTET2 and PhTET3) was 0.25 s.
With “LCitLAFAYPDDDK (L[Cit]LAFAYPDDDK) [QP789]”, the “Pulse Width” value in the test on PS1223 is listed as 0.92 s. Further, in the test on PS961 [2] (arginine or citrulline at position 2), the “Median PD of recognition of N-terminal leucine by PS961” value is on record as 0.78 s. In addition, the “N-terminal arginine recognition by PS621” value with PS621 was “eliminated”.

Source of the values: patent US20230213527A1, “COMPOSITIONS AND METHODS FOR POLYPEPTIDE ANALYSIS” (Quantum-Si Incorporated, priority 2021, published 2023).
